Measurements taken from the supplement of paper PMC11061612.

Key:
Assay in all cases: Bliss excess, mean over the matrix (fraction); higher = more synergy
ACHN (Kidney Carcinoma) = tested on: ACHN (Kidney Carcinoma)
How it was run: (§1)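 After 24 hours at 37°C and 5% CO2 in 1536-well plates, cells in DMEM/F12 or RPMI plus 10% FBS received two-drug dose matrices for 72 hours. Viability came from CellTiter-Glo 2.0 luminescence and was scaled as inhibition, anchored at 0 by vehicle wells and at 1 by blank wells. Combination Emax is taken as the second-highest inhibition in the matrix, and Bliss excess as the observed combination effect less EA + EB − EA·EB, with EA and EB the single-agent effects.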

[1] = tested on: AMO-1 (Plasma Cell Myeloma)
How it was run: as §1

[2] = tested on: Ca9-22 (Head and Neck Carcinoma)
How it was run: as §1

[3] = tested on: Caov-4 (Ovarian Carcinoma)
How it was run: as §1

D-263MG (Glioblastoma) = tested on: D-263MG (Glioblastoma)
How it was run: as §1

EW-24 (Ewing's Sarcoma) = tested on: EW-24 (Ewing's Sarcoma)
How it was run: as §1

[4] = tested on: EoL-1-cell (Acute Myeloid Leukemia)
How it was run: as §1

[5] = tested on: HSC-4 (Oral Cavity Carcinoma)
How it was run: as §1

[6] = tested on: KARPAS-299 (T-Cell Non-Hodgkin's Lymphoma)
How it was run: as §1

[7] = tested on: KYSE-450 (Esophageal Squamous Cell Carcinoma)
How it was run: as §1

NB69 (Neuroblastoma) = tested on: NB69 (Neuroblastoma)
How it was run: as §1

[8] = tested on: NCI-H727 (Other Solid Carcinomas)
How it was run: as §1

[9] = tested on: OE19 (Esophageal Adenocarcinoma)
How it was run: as §1

[10] = tested on: RF-48 (B-Cell Non-Hodgkin's Lymphoma)
How it was run: as §1

[11] = tested on: SCC-15 (Oral Cavity Carcinoma)
How it was run: as §1

[12] = tested on: TE-1 (Esophageal Squamous Cell Carcinoma)
How it was run: as §1

TGW (Neuroblastoma) = tested on: TGW (Neuroblastoma)
How it was run: as §1

TK10 (Kidney Carcinoma) = tested on: TK10 (Kidney Carcinoma)
How it was run: as §1

UACC-62 (Melanoma) = tested on: UACC-62 (Melanoma)
How it was run: as §1

YH-13 (Glioblastoma) = tested on: YH-13 (Glioblastoma)
How it was run: as §1

Row | Compound | Bliss excess (ACHN (Kidney Carcinoma)) | Bliss excess [1] | Bliss excess [2] | Bliss excess [3] | Bliss excess (D-263MG (Glioblastoma)) | Bliss excess (EW-24 (Ewing's Sarcoma)) | Bliss excess [4] | Bliss excess [5] | Bliss excess [6] | Bliss excess [7] | Bliss excess (NB69 (Neuroblastoma)) | Bliss excess [8] | Bliss excess [9] | Bliss excess [10] | Bliss excess [11] | Bliss excess [12] | Bliss excess (TGW (Neuroblastoma)) | Bliss excess (TK10 (Kidney Carcinoma)) | Bliss excess (UACC-62 (Melanoma)) | Bliss excess (YH-13 (Glioblastoma))
1 | NC1(C(=O)N[C@@H](CCO)c2ccc(Cl)cc2)CCN(c2ncnc3[nH]ccc23)CC1 [Capivasertib] + CCN(CCO)CCCOc1ccc2c(Nc3cc(CC(=O)Nc4cccc(F)c4)[nH]n3)ncnc2c1 [AZD2811] (first compound max 10 µM, 7x7, partner max 1 µM) | -0.0384 | 0.0783 | 0.0117 | 0.026 | 0.0163 | -0.0029 | -0.0177 | -0.081 | 0.029 | 0.0066 | -0.0339 | -0.0058 | -0.0513 | -0.0019 | 0.0105 | -0.0347 | -0.0911 | -0.0434 | -0.016 | -0.0317
2 | CCc1c2c(nc3ccc(O)cc13)-c1cc3c(c(=O)n1C2)COC(=O)[C@]3(O)CC [SN-38] + CN(C)CCCOc1ccc(-c2ccc3ncc4c(c3c2)n(C2CCOCC2)c(=O)n4C)cn1 [AZD0156] (first compound max 0.3 µM, 7x7, partner max 1 µM) | -0.0134 | -0.103 | 0.0332 | 0.0268 | 0.0701 | -0.0189 | 0.098 | -0.0346 | 0.071 | 0.0937 | 0.0106 | -0.006 | 0.159 | -0.0098 | 0.0092 | 0.0182 | 0.0047 | 0.028 | 0.0077 | -0.0036
3 | Cc1c2c(nn1C)CSCc1cc(n(C)n1)CSc1cc(c3ccccc3c1)OCCCc1c(C(=O)O)n(C)c3c-2c(Cl)ccc13 [AZD5991] + CCN(CCO)CCCOc1ccc2c(Nc3cc(CC(=O)Nc4cccc(F)c4)[nH]n3)ncnc2c1 [AZD2811] (first compound max 1 µM, 7x7, partner max 1 µM) | 0.0541 | 0.0145 | 0.0626 | 0.0337 | 0.122 | -0.0172 | 0.0044 | -0.0283 | 0.0426 | 0.0499 | 0.0311 | 0.0473 | -0.0098 | 0.0211 | -0.0061 | 0.0705 | 0.0418 | 0.0117 | -0.0113 | 0.0141
4 | NC1(C(=O)N[C@@H](CCO)c2ccc(Cl)cc2)CCN(c2ncnc3[nH]ccc23)CC1 [Capivasertib] + CC(C)n1c(=O)n(C)c2cnc3cc(F)c(-c4ccc(OCCCN5CCCCC5)nc4)cc3c21 [AZD1390] (first compound max 10 µM, 7x7, partner max 0.3 µM) | -0.0389 | 0.0042 | -0.0368 | -0.0095 | -0.0713 | -0.218 | -0.0173 | -0.0891 | 0.015 | -0.0209 | -0.0787 | -0.0922 | -0.0026 | -0.0052 | -0.0796 | -0.0818 | -0.106 | -0.0798 | -0.0888 | -0.0372
5 | Cn1cnc2c(F)c(Nc3ccc(Br)cc3Cl)c(C(=O)NOCCO)cc21 [Selumetinib] + CC(C)n1c(=O)n(C)c2cnc3cc(F)c(-c4ccc(OCCCN5CCCCC5)nc4)cc3c21 [AZD1390] (first compound max 10 µM, 7x7, partner max 0.3 µM) | 0.0389 | 0.0291 | 0.0337 | -0.0382 | -0.0352 | -0.0594 | 0.0004 | -0.085 | 0.0285 | -0.0416 | -0.0538 | -0.0229 | -0.0326 | -0.056 | -0.0462 | 0.0347 | -0.0393 | -0.0336 | -0.0092 | -0.0342
6 | COc1cccc(OCCCN)c1-c1cc(Nc2cnc(C#N)cn2)n[nH]1 [Prexasertib] + CN(C)CCCOc1ccc(-c2ccc3ncc4c(c3c2)n(C2CCOCC2)c(=O)n4C)cn1 [AZD0156] (first compound max 1 µM, 7x7, partner max 1 µM) | -0.0318 | -0.0341 | -0.0123 | 0.0056 | 0.0273 | -0.0082 | -0.0145 | -0.0079 | 0.0074 | -0.0713 | 0.0064 | -0.0646 | 0.0198 | 0.0213 | -0.0333 | -0.0356 | -0.0253 | -0.0239 | 0.0155 | -0.0203
7 | CCN(CCO)CCCOc1ccc2c(Nc3cc(CC(=O)Nc4cccc(F)c4)[nH]n3)ncnc2c1 [AZD2811] + C[C@@H]1COCCN1C2=NC(=NC(=C2)C3(CC3)[S@](=N)(=O)C)C4=C5C=CNC5=NC=C4 [AZD6738] (first compound max 1 µM, 7x7, partner max 10 µM) | -0.0369 | -0.0135 | 0.0323 | -0.0065 | -0.0611 | -0.104 | -0.0354 | -0.0687 | -0.0024 | -0.0621 | -0.0806 | -0.0849 | -0.0264 | -0.0434 | -0.0478 | -0.0042 | -0.0211 | -0.0811 | -0.0338 | -0.0931
8 | Cc1c2c(nn1C)CSCc1cc(n(C)n1)CSc1cc(c3ccccc3c1)OCCCc1c(C(=O)O)n(C)c3c-2c(Cl)ccc13 [AZD5991] + Cn1cnc2c(F)c(Nc3ccc(Br)cc3Cl)c(C(=O)NOCCO)cc21 [Selumetinib] (first compound max 1 µM, 7x7, partner max 3 µM) | 0.0314 | 0.0129 | 0.0185 | 0.0604 | -0.0318 | -0.017 | 0.0751 | -0.0175 | 0.0496 | 0.0036 | 0.0377 | 0.0213 | 0.0051 | -0.0095 | 0.0241 | 0.019 | 0.0029 | 0.0135 | -0.0465 | -0.0347
9 | CN(C)CCCOc1ccc(-c2ccc3ncc4c(c3c2)n(C2CCOCC2)c(=O)n4C)cn1 [AZD0156] + CCN(CCO)CCCOc1ccc2c(Nc3cc(CC(=O)Nc4cccc(F)c4)[nH]n3)ncnc2c1 [AZD2811] (first compound max 1 µM, 7x7, partner max 1 µM) | -0.0232 | 0.0053 | -0.0056 | 0.005 | -0.0339 | 0.0199 | -0.0696 | -0.0348 | 0.0031 | -0.0353 | -0.0815 | -0.0825 | 0.0224 | 0.0084 | -0.0458 | -0.0016 | -0.0141 | -0.0342 | -0.0467 | -0.0119
10 | CC(=O)c1c(C)c2cnc(Nc3ccc(N4CCNCC4)cn3)nc2n(C2CCCC2)c1=O [Palbociclib] + Cc1c2c(nn1C)CSCc1cc(n(C)n1)CSc1cc(c3ccccc3c1)OCCCc1c(C(=O)O)n(C)c3c-2c(Cl)ccc13 [AZD5991] (first compound max 10 µM, 7x7, partner max 1 µM) | -0.0106 | -0.0375 | -0.0032 | -0.0133 | -0.0135 | -0.0178 | 0.0132 | -0.0729 | 0.0262 | -0.0623 | 0.0058 | 0.0353 | 0.0014 | -0.0722 | -0.044 | -0.0182 | -0.079 | -0.0228 | -0.0612 | -0.003
11 | CN(C)CCCOc1ccc(-c2ccc3ncc4c(c3c2)n(C2CCOCC2)c(=O)n4C)cn1 [AZD0156] + C[C@@H]1COCCN1C2=NC(=NC(=C2)C3(CC3)[S@](=N)(=O)C)C4=C5C=CNC5=NC=C4 [AZD6738] (first compound max 1 µM, 7x7, partner max 10 µM) | -0.0212 | 0.0146 | 0.0218 | -0.0388 | 0.0366 | -0.0225 | 0.0408 | -0.0461 | -0.0283 | -0.0099 | -0.069 | 0.0226 | 0.0277 | 0.0487 | -0.0209 | -0.0595 | 0.0307 | 0.001 | -0.0035 | 0.0019
12 | COc1nnc2ccc(N3CCC(c4ccc(OCCN5CCN(C)C(=O)[C@H]5C)cc4)CC3)nn12 [AZD5153] + C[C@@H]1COCCN1C2=NC(=NC(=C2)C3(CC3)[S@](=N)(=O)C)C4=C5C=CNC5=NC=C4 [AZD6738] (first compound max 1 µM, 7x7, partner max 10 µM) | 0.0379 | -0.0361 | -0.0481 | 0.097 | 0.0106 | -0.0044 | -0.0066 | -0.0215 | 0.0074 | 0.0295 | 0.008 | 0.0364 | -0.0416 | -0.0851 | 0.0084 | 0.019 | -0.0601 | -0.0406 | 0.0179 | -0.0157
13 | COc1cccc(OCCCN)c1-c1cc(Nc2cnc(C#N)cn2)n[nH]1 [Prexasertib] + CCc1c2c(nc3ccc(O)cc13)-c1cc3c(c(=O)n1C2)COC(=O)[C@]3(O)CC [SN-38] (first compound max 1 µM, 7x7, partner max 0.3 µM) | -0.0755 | -0.04 | 0.0163 | -0.0332 | 0.0688 | -0.0615 | -0.0317 | -0.0372 | -0.0223 | 0.19 | -0.0556 | -0.0425 | 0.129 | -0.0572 | -0.0236 | -0.0025 | -0.0284 | -0.0257 | -0.042 | 0.0079
14 | CC1(C)CCC(CN2CCN(c3ccc(C(=O)NS(=O)(=O)c4ccc(NCC5CCOCC5)c([N+](=O)[O-])c4)c(Oc4cnc5[nH]ccc5c4)c3)CC2)=C(c2ccc(Cl)cc2)C1 [Venetoclax] + COc1cc(Nc2ncc3c(n2)-c2ccc(Cl)cc2C(c2c(F)cccc2OC)=NC3)ccc1C(=O)O [Alisertib] (first compound max 1 µM, 7x7, partner max 10 µM) | 0.0062 | -0.0586 | -0.0147 | 0.0149 | 0.0522 | 0.0205 | 0.0132 | -0.0528 | 0.134 | 0.007 | 0.0765 | -0.0707 | -0.059 | 0.194 | -0.0257 | 0.0279 | 0.0858 | -0.0694 | 0.01 | 0.111
15 | Cc1c2c(nn1C)CSCc1cc(n(C)n1)CSc1cc(c3ccccc3c1)OCCCc1c(C(=O)O)n(C)c3c-2c(Cl)ccc13 [AZD5991] + C=CCn1c(=O)c2cnc(Nc3ccc(N4CCN(C)CC4)cc3)nc2n1-c1cccc(C(C)(C)O)n1 [AZD1775] (first compound max 1 µM, partner max 1 µM) | -0.0085 | -0.0189 | -0.032 | -0.0345 | -0.0168 | 0.0056 | 0.0097 | -0.0805 | -0.0032 | 0.025 | -0.0267 | -0.0171 | -0.0082 | 0.0064 | -0.0365 | -0.0456 | -0.0538 | 0.0159 | 0.0675 | -0.0275
